# Measured values taken from paper PMC10154249, “Unique progerin C-terminal peptide ameliorates Hutchinson–Gilford progeria syndrome phenotype by rescuing BUBR1” (Nature Aging, 2023).
# Legend:
# PTBP1 = target: T1, PTBP1 (Homo sapiens, UniProt P26599); test: Microscale thermophoresis (MST) of UPCP and PTBP1; assay type: binding; details: Fig. 4l
# T1 construct: made in house
# Procedure: (§1) Cells were harvested and lysed in buffer A mixed with protease inhibitor cocktail tablet (Roche) after 48 h. […] The beads were washed three times using 1× Tris saline buffer (50 mM Tris-HCl (pH 7.4) and 150 mM NaCl)) for 8 min each. The bound proteins BUBR1 or PTBP1 were eluted with 3×Flag peptide (ApexBio) for 2 h at 4 °C. Finally, BUBR1 or PTBP1 was concentrated and recovered by using the Centrifugal Filters (Amicon Ultra).
# His-UPCP was eluted with Imidazole eluent for 2 h at 4 °C and concentrated and recovered by using centrifugal filters (Amicon Ultra). Flag-BUBR1 or PTBP1 was purified as described in Affinity purification of Flag-tagged protein. The purified protein was diluted with 0.05% Tween-20 in PBS in to an appropriate concentration (His-UPCP: 50 nM, Flag-BUBR1: 25 μM, Flag-PTBP1: 45 μM). Then, His-UPCP was labeled with RED-Tris-NAT according to the manufacturer’s instructions (NanoTemper, MO-L018). Flag-BUBR1 or Flag-PTBP1 was diluted by 16 concentration gradients in turn and mixed with labeled protein (His-UPCP). The capillaries (MST NT115 premium) were loaded and the samples measured on the instrument (NanoTemper Monolith NT.115). Data were analyzed by MO.AffinityAnalysis and curves were drawn using Origin 2019.
# BUBR1 = target: T2, BUBR1 (Homo sapiens, UniProt O60566); test: Pulldown assay of UPCP and BUBR1; assay type: binding; details: pulldown (and MST); His-UPCP 10 μg with Flag beads-BUBR1, 16 h at 4 °C
# T2 construct: made in house
# T2 sequence (O60566 whole entry): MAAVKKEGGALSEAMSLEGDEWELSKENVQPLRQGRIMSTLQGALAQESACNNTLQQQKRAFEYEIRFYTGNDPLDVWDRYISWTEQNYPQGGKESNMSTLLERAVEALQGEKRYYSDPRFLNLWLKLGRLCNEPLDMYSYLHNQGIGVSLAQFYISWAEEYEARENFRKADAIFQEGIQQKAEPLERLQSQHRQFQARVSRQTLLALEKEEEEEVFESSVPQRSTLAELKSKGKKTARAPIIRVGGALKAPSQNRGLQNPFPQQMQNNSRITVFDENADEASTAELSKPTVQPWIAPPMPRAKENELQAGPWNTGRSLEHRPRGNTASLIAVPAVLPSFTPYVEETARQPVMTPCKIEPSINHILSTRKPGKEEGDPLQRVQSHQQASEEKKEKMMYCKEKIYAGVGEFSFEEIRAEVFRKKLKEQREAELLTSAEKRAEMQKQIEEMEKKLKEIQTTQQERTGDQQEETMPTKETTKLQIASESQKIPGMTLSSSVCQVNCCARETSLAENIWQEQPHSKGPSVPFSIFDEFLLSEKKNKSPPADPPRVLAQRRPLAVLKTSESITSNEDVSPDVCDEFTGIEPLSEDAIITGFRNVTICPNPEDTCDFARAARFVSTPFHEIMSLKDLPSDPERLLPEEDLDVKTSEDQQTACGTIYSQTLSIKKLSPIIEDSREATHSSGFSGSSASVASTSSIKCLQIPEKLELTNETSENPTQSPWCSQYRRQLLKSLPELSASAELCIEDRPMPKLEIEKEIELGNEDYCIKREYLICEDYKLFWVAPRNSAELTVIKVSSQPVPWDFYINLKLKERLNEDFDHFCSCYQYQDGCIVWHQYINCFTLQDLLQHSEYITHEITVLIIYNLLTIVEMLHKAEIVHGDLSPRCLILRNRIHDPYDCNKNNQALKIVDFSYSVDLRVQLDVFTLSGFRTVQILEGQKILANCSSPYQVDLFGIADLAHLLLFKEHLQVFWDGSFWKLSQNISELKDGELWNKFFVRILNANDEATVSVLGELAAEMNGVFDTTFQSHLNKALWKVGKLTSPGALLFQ
# Procedure: as §1
# A detailed description of the pulldown assay was described previously. His-UPCP fusion protein was expression in bacteria (BL21) and induced with 0.5 mM isopropyl-β-D-thio-galactoside for 16 h at 16 °C. The bacteria were harvested and lysed in TEN buffer (20 mM Tris-HCl (pH7.4), 0.1mM EDTA, 100 mM NaCl). […] His-UPCP was eluted with Imidazole eluent (50 mM NaH2PO4, 300 mM NaCl and 50 mM Imidazole) for 2 h at 4 °C and concentrated and recovered using centrifugal filters (Amicon Ultra). For the pulldown of His-UPCP and Flag-BUBR1 or Flag-PTBP1, 10 μg His-UPCP was incubated with Flag beads (Biotool, catalog no. B23102), Flag beads-BUBR1 or Flag beads-PTBP1 respectively for 16 h at 4 °C. The beads were washed three times with PBS and added to 1× loading buffer for western blot.
# [1] = system: BUBR1 binding to BUB3 and CDC20; test: CoIP of BUBR1 and SAC proteins BUB3 and CDC20 in HEK-293T cells; assay type: cell-based; details: UPCP 18 μM, nocodazole 200 ng ml^–1
# Procedure: Detailed descriptions of CoIP were described previously[55],[56]. Cells were harvested and washed three times in cold PBS, then lysed in CoIP buffer (25 mM Tris-HCl (pH 7.5), 150 mM KCl, 5 mM EDTA, and 0.5% NP-40) plus protease inhibitor cocktail tablet (Roche). Incubate on ice and shock lysates on the vortex shaker 15 times for 30 s each. Microcentrifuge in 12,000g for 15 min at 4 °C, collect the supernatant, and incubate with 3 μg primary antibodies with gentle shaking overnight at 4 °C, followed by adding 20–40 μl Pure Proteome Protein A/G Mix Magnetic Beads (Millipore, catalog no. […]02) for 3 h. Wash the beads three times with 1 ml CoIP buffer for 8 min each, resuspend in 50 μl 1× loading buffer, and incubate at 100 °C for 8 min. Throw beads away and analyze by immunoblotting.
# senescent IMR90 cells = test: CCK8 cell viability of DNA damage-induced senescent IMR90 cells; assay type: cell-based, human; details: IMR90, 10 days after bleomycin, doxorubicin, ionizing radiation or etoposide
# Procedure: Fibroblasts from patients with HGPS were obtained from The Progeria Research Foundation Cell and Tissue Bank (http://www.progeriaresearch.org). The following fibroblasts were used: HGADFN003, HGADFN167, HGMDFN090 and HGFDFN168. Human dermal fibroblasts (GM00038 and AG09602) were obtained from Coriell Cell Repository (https://catalog.coriell.org). These cells were characterized by DNA fingerprinting and isozyme detection and were tested by a MycoBlue Mycoplasma Detector (Vazyme Biotech) to exclude mycoplasma contamination before the experiments. […] HGADFN003, HGADFN167, HGMDFN090, HGFDFN168, GM00038 and AG09602 were cultured in DMEM medium with 15% (v/v) fetal bovine serum (VivaCell). […] For bleomycin-induced senescence, IMR90 cells were incubated with the culture medium containing 20 μg ml^–1 Bleomycin (Selleck, catalog no. S1214) for 2 h and analyzed 10 days later, or as otherwise indicated. For doxorubicin-induced senescence, IMR90 cells were treated twice with 100 nM Doxorubicin (Selleck, catalog no. S1208) with a 2 day interval and analyzed 10 days later, or as otherwise indicated. For ionizing radiation (IR)-induced senescence, IMR90 cells were exposed to 10 Gy Gamma rays, and analyzed 10 days later, or as otherwise indicated, the control IMR90 cells were mock irradiated. […]
# Cell viability was assessed using the Cell Counting Kit-8 (CCK8) (APE, catalog no. k1018). […]
# T1 sequence (P26599 whole entry): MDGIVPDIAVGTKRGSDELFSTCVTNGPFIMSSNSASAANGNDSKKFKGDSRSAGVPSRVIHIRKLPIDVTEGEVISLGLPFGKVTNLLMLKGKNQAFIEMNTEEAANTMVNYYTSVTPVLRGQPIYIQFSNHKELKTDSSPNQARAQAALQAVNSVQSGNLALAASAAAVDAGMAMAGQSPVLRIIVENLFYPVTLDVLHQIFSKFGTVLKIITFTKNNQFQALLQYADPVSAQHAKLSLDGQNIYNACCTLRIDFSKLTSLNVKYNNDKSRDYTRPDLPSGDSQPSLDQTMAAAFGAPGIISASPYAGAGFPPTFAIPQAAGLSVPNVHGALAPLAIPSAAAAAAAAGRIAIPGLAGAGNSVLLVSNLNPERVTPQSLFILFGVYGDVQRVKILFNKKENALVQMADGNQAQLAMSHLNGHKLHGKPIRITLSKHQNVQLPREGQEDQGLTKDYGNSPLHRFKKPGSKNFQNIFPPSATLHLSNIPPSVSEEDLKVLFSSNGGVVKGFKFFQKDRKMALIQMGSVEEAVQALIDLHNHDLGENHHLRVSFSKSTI
substance,measurement,setting,value
"H-YGRKKRRQRRRYNLRSRTVLCGTCGQPADKASASGSGAQSPQNCSIM-OH (cysteines drawn unpaired) [UPCP, unique progerin C-terminal peptide]","Dose Response Curve, Response","PTBP1; Dose 5.625e-6, Err-Value 0.11619",926.063
same,"Dose Response Curve, Response","PTBP1; Dose 1.125e-5, Err-Value 0.242742",928.882
same,"Dose Response Curve, Response","PTBP1; Dose 2.25e-5, Err-Value 0.492149",930.614
same,"Dose Response Curve, Response","PTBP1; Dose 1.10E-08, Err-Value 0.170403",918.746
same,"Dose Response Curve, Response","PTBP1; Dose 1.37E-09, Err-Value 0.46814",919.158
same,"Dose Response Curve, Response","PTBP1; Dose 1.41E-06, Err-Value 0.643872",921.756
same,"Dose Response Curve, Response","PTBP1; Dose 1.76E-07, Err-Value 0.140462",919.37
same,"Dose Response Curve, Response","PTBP1; Dose 2.20E-08, Err-Value 0.425445",918.898
same,"Dose Response Curve, Response","PTBP1; Dose 2.75E-09, Err-Value 0.242938",919.038
same,"Dose Response Curve, Response","PTBP1; Dose 2.81E-06, Err-Value 0.290637",923.469
same,"Dose Response Curve, Response","PTBP1; Dose 3.52E-07, Err-Value 0.0904303",919.901
same,"Dose Response Curve, Response","PTBP1; Dose 4.39E-08, Err-Value 0.556308",918.749
same,"Dose Response Curve, Response","PTBP1; Dose 5.49E-09, Err-Value 0.120596",918.787
same,"Dose Response Curve, Response","PTBP1; Dose 6.87E-10, Err-Value 0.420573",919.333
same,"Dose Response Curve, Response","PTBP1; Dose 7.03E-07, Err-Value 0.21429",920.338
same,"Dose Response Curve, Response","PTBP1; Dose 8.79E-08, Err-Value 0.322491",918.54
same,direct combination with BUBR1,BUBR1,could combine with BUBR1 directly in vitro
same,binding of BUBR1 to SAC proteins (BUB3 or CDC20),[1],did not block the binding of BUBR1 to other proteins such as PTBP1 or other SAC proteins (BUB3 or CDC20)
same,proliferation of DNA damage-induced senescent cells,senescent IMR90 cells,did not cause DNA damage-induced senescent cells to proliferate
